Laboratory results from paper PMC3545969, “Mutagenicity and antimutagenicity of (−)-hinokinin a trypanosomicidal compound measured by Salmonella microsome and comet assays” (BMC Complementary and Alternative Medicine, 2012).
Like-named read-outs stand apart in the source and are kept apart here. Marks after values point to notes of the source that are not given here.

How the values were obtained:
[1] = tested on: V79 cells; experiment: Comet assay, genotoxicity in V79 cells; type: cell-based, Chinese hamster; parameters: Class 0 / Class 1 / Class 2 / Class 3: unit not given here; details: for Class 0 / Class 1 / Class 2 / Class 3 / Score: 3 h
Experimental: Chinese hamster lung fibroblasts (V79) were kindly supplied by Professor Cólus (Universidade Estadual de Londrina (UEL), Paraná, Brazil). Cells were maintained as monolayers in plastic culture flasks (25 cm^2) in HAM-F10 (Sigma-Aldrich) plus DMEM (Sigma-Aldrich, 1:1) culture medium supplemented with 10%; fetal bovine serum (Nutricell), antibiotics (0.01 mg mL^−1 streptomycin and 0.005 mg mL^−1 penicillin; Sigma-Aldrich) and 2.38 mg mL^−1 Hepes (Sigma-Aldrich), at 37°C in a BOD-type chamber. Under these conditions, the average cell cycle time was 12 h.
HK was first dissolved in a mixture of methanol (100 μL) and distilled water (900 μL). The final concentration of methanol in the culture was 0.1%;. The choice of concentrations was based on the results of previous experiments with HK [12]. In the experiments, 3 × 10^5 cells (V79) were seeded into tissue-culture flasks, incubated for two cycles (24 h) in complete HAM-F10/DMEM medium, washed with phosphate buffer saline (PBS), and then subjected to one of the following treatments, in serum-free medium, for 3 h. To assess genotoxicity, the cells were treated with each concentration of HK alone, while for antigenotoxicity, they were treated with the mutagen DXR (0.3 μM) in combination with each HK concentration. Positive (DXR) and negative controls were also included in the test. At the end of the treatment, the cells were washed with ice-cold PBS and trypsinized with 200 μL trypsin. After 3 min, the cells were gently resuspended in complete medium and 20 μL of the cell suspension was immediately used for the test.
The procedures described by Singh et al. were adopted, with minor modifications, as described in detail by Speit and Hartmann and reviewed by Burlinson et al.. Briefly, a microscope slide was covered with a base layer of 1.5%; normal-melting agarose (Invitrogen) and 20 μL of the test cells suspended in 120 μL 0.5%; low-melting agarose (Invitrogen) at 37°C was then spread over the base layer. A coverslip was added and the agarose allowed to solidify at 4°C for 15 min. Next, the coverslip was gently removed and the slides were immersed in freshly prepared lysing solution consisting of 89 mL stock solution (2.5 M NaCl, 100 mM EDTA, 10 mM Tris, pH 10.0, and 1%; sodium lauryl sarcosine), 10 mL DMSO and 1 mL Triton X-100, pH 10.0, at 4°C, for at least 20 h, protected from light. At the end of this period, the slides were transferred to an electrophoresis chamber containing a high pH (>13.0) buffer (300 mM NaOH, 1 mM EDTA) and incubated at 4°C for 20 min to allow the DNA to unwind. A current of 25 V (1.0 V cm^−1, 300 mA) was applied for 20 min. The slides were then submerged in a neutralization buffer (0.4 M Tris - HCl, pH 7.5) for 15 min, dried at room temperature and fixed in 100%; ethanol for 10 min.
The slides were stained with 100 μL ethidium bromide (20 μg ml^−1) and covered with a coverslip. All the slides in the experiment were coded before analysis. The stained nucleoids were immediately evaluated at 1000x magnification under a Nikon fluorescence microscope fitted with a 515–560 nm excitation filter and a 590 nm barrier filter.
For each treatment, the extent and distribution of DNA damage indicated by the comet assay were evaluated by examining 100 randomly selected and non-overlapping cells on the slides (i.e. 300 nucleoids per treatment). For each slide, the cells were visually scored and allocated to one of four classes (0, 1, 2 and 3), according to tail size, as follows: class 0, undamaged, no tail; class 1, a short tail whose length was smaller than the diameter of the comet head (nucleus); class 2, tail length between 1 and 2 times the diameter of the head; and class 3, maximally damaged: a long tail measuring more than twice the diameter of the head. The few comets containing no head and those with almost all DNA in the tail, or with a very wide tail, were excluded from the analysis since they may arise from dead cells. […]

[2] = tested on: Salmonella typhimurium TA100
[3] = tested on: Salmonella typhimurium TA100; remark: listed apart in the source
[4] = tested on: Salmonella typhimurium TA97a; details: TA 97a, + S9, positive control 2-anthramine 1.25 μg/plate
[5] = tested on: Salmonella typhimurium TA98; details: TA 98, + S9, positive control 2-anthramine 1.25 μg/plate
[6] = tested on: Salmonella typhimurium TA97a; details: TA 97a, + S9, mutagen alone (Ctrol +), 2-AA 1.25 μg/plate
[7] = DXR 0.3 μM alone (positive control)

COc1cccc2c1C(=O)c1c(O)c3c(c(O)c1C2=O)C[C@@](O)(C(=O)CO)C[C@@H]3O[C@H]1C[C@H](N)[C@H](O)[C@H](C)O1 [DXR, doxorubicin, reference compound]
Class 0 ([1]; DXR 0.3 μM + MeOH 0.1%): 46.3 ± 6.8
Class 1 ([1]; DXR 0.3 μM + MeOH 0.1%): 30.0 ± 6.0
Class 2 ([1]; DXR 0.3 μM + MeOH 0.1%): 16.3 ± 5.6
Class 3 ([1]; DXR 0.3 μM + MeOH 0.1%): 6.6 ± 3.0
Score ([1]; DXR 0.3 μM + MeOH 0.1%): 83.3 ± 14.5^a
Class 0 [1, 7]: 41.0 ± 12.0
Class 1 [1, 7]: 36.0 ± 12.7
Class 2 [1, 7]: 18.0 ± 2.0
Class 3 [1, 7]: 4.0 ± 2.5
Score [1, 7]: 86.0 ± 11.5^a
rate of DNA damage relative to the negative control ([1]; DXR 0.3 μM, V79 cells): significant increase in the rate of DNA damage

aflatoxin B1 [AFB1, reference compound]
Number of revertants(M ± SD)/ plate [2]: 1607 + 79 revertants/plate

Nc1ccc2cc3ccccc3cc2c1 [2-AA, 2-aminoanthracene, reference compound]
Number of revertants(M ± SD)/ plate ([3]; TA 100, + S9, positive control 2-anthramine 1.25 μg/plate): 1456 ± 78^e revertants/plate
Number of revertants(M ± SD)/ plate [4]: 1789 ± 89^e revertants/plate
Number of revertants(M ± SD)/ plate [5]: 1567 ± 115^e revertants/plate
Number of revertants(M ± SD)/ plate [6]: 1083 + 67 revertants/plate

[N-]=[N+]=[N-].[Na+] [SA, sodium azide, reference compound]
Number of revertants(M ± SD)/ plate [3]: 1582 ± 98^c revertants/plate
Number of revertants(M ± SD)/ plate [2]: 1219 + 46 revertants/plate
